Literature values as cited in US11603416B2, “Method for preparation of derivatives of gram-positive bacteria surface capsular polysaccharide” (priority 2018, dated 2023).

System: children with severe ASD
Settings: oral administration; effect disappears once the drug is discontinued

SMILES: CN[C@H](CC(C)C)C(=O)N[C@H]1C(=O)N[C@@H](CC(N)=O)C(=O)N[C@H]2C(=O)N[C@H]3C(=O)N[C@H](C(=O)N[C@H](C(=O)O)c4cc(O)cc(O)c4-c4cc3ccc4O)[C@H](O)c3ccc(c(Cl)c3)Oc3cc2cc(c3O[C@@H]2O[C@H](CO)[C@@H](O)[C@H](O)[C@H]2O[C@H]2C[C@](C)(N)[C@H](O)[C@H](C)O2)Oc2ccc(cc2Cl)[C@H]1O [vancomycin]
- child patients whose autism symptoms have been relieved for a short time: 80%
